Values joined by “and” are separate entries in the source; they are usually repeats but may differ in a detail not shown here. Identical values can stand only once. “Also recorded” adds a separate entry of the source.
Assays:
[1] = test system: canine intestinal inflammation; experiment: Canine inflammatory bowel disease activity index (CIBDAI) around Adriamycin dosing; format: in vivo, dog; set-up: key to CIBDAI C. Vomiting: 0 = none; 1 = mild (1 episode/week); 2 = moderate (2-3 episodes/week); 3 = severe (>3 episodes/week); key to CIBDAI A. Attitude/activity / CIBDAI B. Appetite / CIBDAI E. Stool frequency: 0 = normal; 1 = slightly decreased; 2 = moderately decreased; 3 = severely decreased
Method: (§1) The criteria used for the scoring in the table is found at the bottom of the table. Dogs in the study were given a “palliative” Adriamycin dosage (30 mg/m2, IV every 14 days). Symptoms related to intestinal inflammation are expected in fewer than 10% of treated dogs.

[2] = test system: hepatic demethylation capacity; settings: dog, in vivo
Method: A ^13C-aminopyrine demethylation blood test was performed in 16 dogs before and after undergoing chemotherapy with doxorubicin for malignant neoplasia. A baseline blood sample of 1 ml was taken, followed by intravenous injection of 2 mg/kg ^13C-aminopyrine and collection of another 1 ml blood sample at 45 minutes after ^13C-aminopyrine administration. Blood samples were immediately placed into vacutainer tubes containing 2 ml of 6M hydrochloric acid and the percent dose of the ^13C administered as ^13C-aminopyrine was determined based on fractional mass spectrometry. […] A p-value <0.05 was considered statistically significant.

[3] = test system: dogs with malignant tumors; settings: cited from earlier work
fecal α-1PI = experiment: Fecal alpha(1)-proteinase inhibitor ELISA following Adriamycin; format: in vivo, dog;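 as to m α-1PI - pd. 1: unit µg per g of feces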;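 as to m α-1PI - pd. 2: unit µg per g of feces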
Method: Fecal alpha(1)-proteinase inhibitor (α-1PI) clearance is a reliable, noninvasive marker for protein-losing enteropathy in animals and canines. Furthermore, the canine gut is a good model for the human gut, so results of testing on dogs can be considered relevant to humans. In this example, a number of dogs were tested. Fecal samples were collected daily for 3 days following each Adriamycin administration. An ELISA was used to measure α-1PI concentrations in fecal extracts.
Fecal samples were available for analysis following both chemotherapy treatments from 13 dogs.

[4] = test system: canine intestinal inflammation; experiment: Canine inflammatory bowel disease activity index (CIBDAI) around Adriamycin dosing; format: in vivo; set-up: key: 0 = normal; 1 = slightly decreased; 2 = moderately decreased; 3 = severely decreased; settings: one line per dog
Method: as §1

[5] = test system: canine intestinal inflammation; experiment: as above; format: in vivo; set-up: key: 0 = normal; 1 = slightly soft faeces or faecal blood, mucus or both; 2 = very soft faeces; 3 = watery diarrhea; settings: one line per dog
Method: as §1

[6] = test system: irinotecan-induced diarrhea; settings: irinotecan weekly 125 mg/m^2; strict adherence to high-dose loperamide; fell from 56; cited from earlier work
[7] = test system: chemotherapy-induced diarrhea; settings: 41 5-FU-treated patients; standard-dose loperamide; cited from earlier work
[8] = test system: diarrhea following chemotherapy in dogs; settings: dog, in vivo
Method: 32 dogs presented with diarrhea following the administration of a chemotherapy agent such as doxorubicin, cytoxan, vincristine, lomustine, and others for a minimum period of 48 hours. CASAD in 500 mg tables was given orally to the cancer-treated dogs four times a day (q.i.d.). Other pharmaceutical agents or medications, as shown below, were also administered to certain dogs according to Best Clinical Practices, using usual, customary dosing. To the extent permitted by scheduling, CASAD and the other medication were given concurrently.

[9] = test system: pregnant Sprague-Dawley rats; experiment: Dietary clay toxicity and trace metal bioavailability in pregnant rats; settings: rat, in vivo
Method: In animal studies with calcium montmorillonite clay, no adverse effects from clay treatment, at levels up to 2.0% (w/w) in the diet, have been reported. In recent studies in rodents, calcium montmorillonite clay were evaluated for potential toxicity and trace metal bioavailability in pregnant Sprague-Dawley rats throughout the period of gestation following high level exposure in the diet (2.0% w/w). Clays were supplemented in the balanced diet of Sprague-Dawley rats during pregnancy at a level of 2.0% (w/w). Evaluations of toxicity were performed on gestation day 16 and included maternal body weights, maternal feed intakes, litter weights, in addition to embryonic resorptions. Liver and, kidneys, tibia, brain, uterus, pooled placental, and pooled embryonic mass were collected and weighed. Tissue were lyophilized and neutron activation analysis (NAA) was then performed. Elements considered by NAA included: Al, Br, Ca, Ce, Co, Cr, Cs, Cu, Dy, Eu, Fe, Hf, K, La, Lu, Mg, Mn, Na, Nd, Ni, Rb, S, Sb, Sc, Se, Sm, Sr, Ta, Th, Te, Th, Ti, Tl, U, V, Yb, Zn, and Zr. Inductively coupled plasma-mass spectroscopy further confined that Al was below detection limits (0.5 ppm) in the brain, indicating no significant bioavailability of this metal from clay interactions in the GI tract. […]

With `Cc1ncc([N+](=O)[O-])n1CCO` [Flagyl, metronidazole] the “time to resolution of diarrhea” value ([1]; Dog 2, diarrhea started Day 21 after Adria 2) was “with Flagyl, resolved in 2 days”.

In the case of `COc1cccc2c1C(=O)c1c(O)c3c(c(O)c1C2=O)C[C@@](O)(C(=O)CO)C[C@@H]3O[C@H]1C[C@H](N)[C@H](O)[C@H](C)O1` [doxorubicin], the “CIBDAI A. Attitude/activity” value ([1]; Post Adria 1, 30 mg/m2 IV every 14 days, one line per dog) is reported as “A.0 (11×) and A.1 (2×)”, the “CIBDAI B. Appetite” value ([1]; Post Adria 1, one line per dog) is reported as “B.0 (11×) and B.2 (2×)” and the “CIBDAI C. Vomiting” value ([1]; Post Adria 1, one line per dog) is reported as “C.1 (1 = mild (1 episode/week)) (2×) and C.0 (9×) and C.2 (2 = moderate (2-3 episodes/week)) (2×)”. For the same molecule, the “CIBDAI E. Stool frequency” value ([1]; Post Adria 1, one line per dog) was “E.0 (11×) and E.2 (2 = moderately increased (4-5 times/day)) and E.1 (1 = slightly increased (2-3 times/day))”, the “CIBDAI A. Attitude/activity” value ([1]; Post Adria 2, one line per dog) was “A.0 (10×) and A.3 and A.2 and A.1” and the “CIBDAI B. Appetite” value ([1]; Post Adria 2, one line per dog) was “B.0 (9×) and B.2 (2×) and B.3 and B.1”. For the same molecule, the “CIBDAI C. Vomiting” value ([1]; Post Adria 2, one line per dog) was “C.0 (11×) and C.1 (1 = mild (1 episode/week)) (2×)”, the “CIBDAI E. Stool frequency” value ([1]; Post Adria 2, one line per dog) was “E.2 (2 = moderately increased (4-5 times/day)) (2×) and E.0 (11×)” and the “CIBDAI A. Attitude/activity” value ([1]; Pre Adria 2, one line per dog) was “A.0”. For the same molecule, the “CIBDAI B. Appetite” value ([1]; Pre Adria 2, one line per dog) was “B.0 (12×) and B.1”, the “CIBDAI C. Vomiting” value ([1]; Pre Adria 2, one line per dog) was “C.0” and the “CIBDAI E. Stool frequency” value ([1]; Pre Adria 2, one line per dog) was “E.0”. The “CIBDAI F. Weight loss” value ([1]; Pre Adria 2, one line per dog) was “F.0”, the “observations noted per dog after Adriamycin” value ([1]; notes under the dog's scores, listed as Adria) was “Day 21 - Lethargic for 1 week after; also recorded: Day 21 - Owner reported dumpty for 3 days post Adria #2; also recorded: Day 21 - Diarrhea started, treated; also recorded: Patient was euthanized 5 days after initial; also recorded: Day 7 - Diarrhea,; also recorded: Day 21 - Diarrhea for 3 days,; also recorded: Adria #2 delayed due to vomiting, diarrhea,” and the “mean ±SD clearance at 45 minutes after 13C-aminopyrine administration” value [2] was 0.09562±0.0074. The “dogs that died as a direct result of doxorubicin-induced toxicosis” value ([3]; 185 dogs, 30 mg/m^2 iv once or twice at 21-day interval) was 7 dogs, the “likelihood of toxicosis after second dose in dogs with signs after first dose” value ([3]; dog, in vivo) was 17.2 times and the “fecal α-1PI concentrations, comparison of the two treatments” value (fecal α-1PI; 13 dogs) was “not significantly different”. For the same molecule, the “m α-1PI - pd. 1” value (fecal α-1PI; one line per dog, fecal samples 3 days following first Adriamycin administration) was 0 micro g/g of feces (5×) and 9.38 micro g/g of feces and 1.38 micro g/g of feces and 2.83 micro g/g of feces and 0.7 micro g/g of feces and 4.2 micro g/g of feces and 6.85 micro g/g of feces and 0.47 micro g/g of feces and 13.23 micro g/g of feces, the “m α-1PI - pd. 2” value (fecal α-1PI; one line per dog, fecal samples 3 days following second Adriamycin administration) was 21.29 micro g/g of feces and 0 micro g/g of feces (3×) and 3.76 micro g/g of feces and 1.34 micro g/g of feces and 1.7 micro g/g of feces and 0.85 micro g/g of feces and 0.53 micro g/g of feces and 14.26 micro g/g of feces and 4.57 micro g/g of feces and 1.83 micro g/g of feces and 1.3 micro g/g of feces and the “CIBDAI D. Stool consistency” value ([4]; Post Adria 1) was “D.0”. The “CIBDAI D. Stool consistency” value ([4]; Post Adria 2) was “D.0”, the “CIBDAI D. Stool consistency” value ([4]; Pre Adria 2) was “D.0” and the “CIBDAI D. Stool consistency” value ([5]; Post Adria 1) was “D.3 and D.1 and D.2”. The “CIBDAI D. Stool consistency” value ([5]; Post Adria 2) was “D.2 and D.3” and the “CIBDAI D. Stool consistency” value ([5]; Pre Adria 2) was “D.1”.

For `CN(C)C(=O)C(CCN1CCC(O)(c2ccc(Cl)cc2)CC1)(c1ccccc1)c1ccccc1` [loperamide], the “prevalence of grade ¾ diarrhea” value [6] is listed as 9% and the “resolution of diarrhea by day three” value [7] is listed as 15%.

In the case of `C[C@@H](O)[C@@H]1NC(=O)[C@H](CCCCN)NC(=O)[C@@H](Cc2c[nH]c3ccccc23)NC(=O)[C@H](Cc2ccccc2)NC(=O)[C@@H](NC(=O)[C@H](N)Cc2ccccc2)CSSC[C@@H](C(=O)N[C@H](CO)[C@@H](C)O)NC1=O` [octreotide], the “resolution of diarrhea by day three” value [7] is listed as 90%.

With calcium aluminosilicate [CASAD] the “1 = interaction 0 = noninteraction” value [8] was 0, the dogs with interaction [8] was 0 and the “negative interactions (anorexia, vomiting, nausea, lethargy, anaphylaxis) with additional drugs” value [8] was “No negative interactions”.

With calcium montmorillonite clay the “Al in the brain (ICP-MS)” value [9] was under 0.5 ppm and the “brain Rb” value [9] was “decreased brain Rb”.
